Test results reported in patent US5187165A, “Memory enhancing and analgesic 1,2,3a,8,8a-hexahydro-3a,8(and 1,3a,8)-di(and tri)methylpyrrolo[2,3-b]indoles” (priority 1988, dated 1993).
Counter-ions that a name gives are not always drawn. Like-named read-outs stand apart in the source and are kept apart here.

What was measured:
[1] = test system: pressure stress by artery clip on tail; experiment: Modified Haffner's Analgesia; assay type: in vivo, mice; details: sc; for ANALGESIC ACTIVITY (ED50), Modified Haffner's Analgesia: mice, peak time of drug activity; for ED50: Mus musculus, read-out: ANALGESIC ACTIVITY (ED50), Modified Haffner's Analgesia, mice, sc, peak time of drug activity
Text: The latter assay is used to evaluate analgesic activity by measuring drug-induced changes in the sensitivity of mice to pressure stress by placing an artery clip (21/2 inches long) on their tail. The procedure used is a modification of the test developed by Haffner, Dtsch. Med. Wschr., 55, 731 (1929), and it is described below.
Male mice (Charles River, CD-1) from 18-30 grams are used for the test. An artery clip is applied to the root of the tail of a mouse (approximately 1/2 inch from the body) to induce pain. The animal quickly responds to this noxious stimuli by biting the clip or the location of the clip. This reaction time, the interval between stimulus onset and response, is recorded in 1/10-second increments by a stop watch.
For a time response, the screening dose (25 mg/kg) is administered subcutaneously (10 ml/kg) to the animal receiving food and water ad libitum before testing. Animals receiving the compound orally are fasted 18-24 hours before drug administration. Drug to be tested is prepared with distilled water and if insoluble, one drop of a surfactant is added.
Twenty-eight animals (seven/group) are administered the drug 15, 30, 45 and 60 minutes prior to testing.
The cut-off time (CO) is determined by taking the (x) average +(3) standard (SD) deviations of the combined response latencies of the control mice in all time periods.
Any reaction time, in subsequent drug tests, which is greater than the CO (for the same time period) therefore exceeds 99% of a normal Gaussian distribution and is called "positive response" indicative of analgesic activity. A time response indicates the period of greatest analgesic effect after dosing. The ED50 is determined at the peak time of drug activity. A minimum of three dose groups are used. ED50 's are calculated using computer analysis.

[2] = test system: 2-phenyl-1,4-benzoquinone-induced writhing; experiment: 2-phenyl-1,4-benzoquinone-induced writhing (PQW) test; assay type: in vivo; details: mice; for ED50: Mus musculus, read-out: ANALGESIC ACTIVITY (ED50), PQW
Text: Compounds I of the present invention are also useful as analgesic agents due to their ability to alleviate pain in mammals. […] Exptl. Biol. Med., 95,729 (1957)] and in modified Haffner's analgesia.

[3] = biological target: T1, acetylcholinesterase (Brain AChE) (Rattus norvegicus, UniProt P37136); experiment: In Vitro Inhibition of Acetylcholinesterase Activity in Rat Striatum; assay type: biochemical
T1 construct: corpora striata dissected free, weighed and homogenized in 19 volumes; from tissue; host or cells: corpora striata of male Wistar rats, crude homogenate in phosphate buffer
T1 sequence (P37136 32-614): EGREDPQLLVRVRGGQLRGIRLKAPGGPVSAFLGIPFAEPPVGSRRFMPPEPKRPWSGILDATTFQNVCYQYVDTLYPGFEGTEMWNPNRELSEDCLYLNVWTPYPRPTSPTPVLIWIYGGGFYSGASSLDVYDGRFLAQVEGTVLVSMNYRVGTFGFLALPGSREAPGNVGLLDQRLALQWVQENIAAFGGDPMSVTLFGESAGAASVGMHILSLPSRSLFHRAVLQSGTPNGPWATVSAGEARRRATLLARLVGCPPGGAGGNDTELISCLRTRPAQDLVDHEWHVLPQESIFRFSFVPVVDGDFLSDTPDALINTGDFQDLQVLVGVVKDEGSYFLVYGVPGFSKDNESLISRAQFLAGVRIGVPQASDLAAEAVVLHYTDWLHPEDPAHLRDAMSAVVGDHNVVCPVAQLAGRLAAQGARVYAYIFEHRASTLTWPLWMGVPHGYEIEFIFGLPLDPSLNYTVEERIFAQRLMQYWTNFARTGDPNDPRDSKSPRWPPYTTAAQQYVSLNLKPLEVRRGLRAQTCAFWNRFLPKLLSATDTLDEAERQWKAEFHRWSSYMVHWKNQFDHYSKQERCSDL
Text: (§1) Cholinesterases are found throughout the body, both in the brain and in serum. However, only brain acetylcholinesterase (AChE) distribution is correlated with central cholinergic innervation. […] We have determined in vitro inhibition of acetylcholinesterase activity in rat striatum and in vitro inhibition of butrylcholinesterase activity in human serum according to the methods described below.
The method described below was used in this invention for assaying cholinesterase activity. This is a modification of the method of Ellman et al., Biochem. Pharmacol. 7, 98 (1961).
1. 0.05M Phosphate buffer, pH 7.2
(§2) (a) 9.9 mg 5,5-dithiobisnitrobenzoic acid (DTNB) (0.25 mM)
(b) 99 mg s-acetylthiocholine chloride (5 mM)
(§3) (c) q.s. to 100 ml with 0.05M phosphate buffer, pH 7.2 (reagent 1)
Male Wistar rats are decapitated, brains rapidly removed, corpora striata dissected free, weighed and homogenized in 19 volumes (approximately 7 mg protein/ml) of 0.05M phosphate buffer, pH 7.2 using a Potter-Elvehjem homogenizer. A 50 microliter aliquot of the homogenate is added to 50 microliter vehicle of various concentrations of the test drug and preincubated for 10 minutes at room temperature.
1. For routine IC50 determinations the Abbott Bichromatic Analyzer, ABA-100, is used to determine acetylcholinesterase activity.
Incubation temperature: 30° C.
Following the 10 minute preincubation of the tissue (enzyme) with the inhibitor, the samples are mixed with the substrate chromogen buffer by the ABA-100. Using the indicated instrument settings the ABA-100 automatically reads the color reaction and prints out the results in enzyme units after 15 minutes.
2. The enzyme activity can also be measured with Gilford 250 spectrophotometer. This method is used for more accurate kinetic measurments.
Reagents are added to the reference and sample side of a split curvette as follows.
The uninhibited activity of the enzyme (tissue homogenate) is first determined. Test drugs are made up in a suitable solvent and added in suitable dilutions to the buffer vehicle. The reaction rate is determined by the slope of the recorded absorbance change. The actual rate (moles/liter/min) can be calculated as described in the following formula
rate(moles/liter/min)=slope/(1.36×10^4).

norepinephrine uptake = assay type: biochemical; details: rat brain synaptosomes, 50 nM 3H-NE, 37° C., 5 min; read-out: Reuptake Inhibition of neurotransmitters, Norepinephrine
[4] = test system: scopolamine-induced memory deficit; experiment: Dark Avoidance Assay (scopolamine induced memory deficit reversal); assay type: in vivo, mice; details: Mus musculus, sc, 24 h, read-out: % of Animals with Scopolamine Induced Memory Deficit Reversal
Description: In this assay mice are tested for their ability to remember an unpleasant stimulus for a period of 24 hours. A mouse is placed in a chamber that contains a dark compartment; a strong incandescent light drives it to the dark compartment, where an electric shock is administered through metal plates on the floor. The animal is removed from the testing apparatus and tested again, 24 hours later, for the ability to remember the electric shock.
If scopolamine, an anticholinergic that is known to cause memory impairment, is administered before an animal's initial exposure to the test chamber, the animal re-enters the dark compartment shortly after being placed in the test chamber 24 hours later. This effect of scopolamine is blocked by an active test compound, resulting in a greater interval before re-entry into the dark compartment.
The results for an active compound are expressed as the percent of a group of animals in which the effect of scopolamine is blocked, as manifested by an increased interval between being placed in the test chamber and re-entering the dark compartment.

[5] = biological target: T2, butyrylcholinesterase (Serum AChE) (Homo sapiens, UniProt P06276); experiment: In Vitro Inhibition of Butyrylcholinesterase Activity in Human Serum; assay type: biochemical
T2 construct: A vial of lyophilized human serum; purchased Biodynamics, Houston, Tex; (Precilip); host or cells: lyophilized human serum, reconstituted in water; enzyme not purified
T2 sequence (P06276 29-602): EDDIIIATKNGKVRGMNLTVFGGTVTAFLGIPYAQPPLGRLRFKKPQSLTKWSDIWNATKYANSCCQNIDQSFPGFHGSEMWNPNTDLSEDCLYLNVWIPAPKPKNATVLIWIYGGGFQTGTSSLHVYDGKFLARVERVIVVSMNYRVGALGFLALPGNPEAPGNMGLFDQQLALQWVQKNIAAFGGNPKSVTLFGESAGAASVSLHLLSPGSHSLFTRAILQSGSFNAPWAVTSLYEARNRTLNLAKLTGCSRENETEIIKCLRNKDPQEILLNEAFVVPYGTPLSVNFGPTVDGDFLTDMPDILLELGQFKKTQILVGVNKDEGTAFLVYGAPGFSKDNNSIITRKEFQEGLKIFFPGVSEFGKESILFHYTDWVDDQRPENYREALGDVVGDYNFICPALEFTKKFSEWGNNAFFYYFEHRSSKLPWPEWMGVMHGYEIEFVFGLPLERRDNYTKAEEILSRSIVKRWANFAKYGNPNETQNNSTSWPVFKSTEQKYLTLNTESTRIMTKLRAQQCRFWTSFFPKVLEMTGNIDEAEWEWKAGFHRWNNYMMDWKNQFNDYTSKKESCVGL
Text: as §1
This assay can be used in conjunction with the acetylcholinesterase assay to determine the enzyme selectivity of various chloinesterase inhibitors.
Butyrylcholinesterase (BChE), which is sometimes called pseudocholinesterase, preferentially hydrolyzes butyrylcholine. This enzyme is found in the highest amounts in serum, but its physiological role is not known.
as §2
(b) 113 mg s-butyrylthiochloine chloride (5 mM)
as §3
A vial of lyophilized human serum (Precilip, Biodynamics, Houston, Tex. is reconstituted in 3 ml of distilled water. A 10 microliter aliquot of this suspension is added to 90 microliter of the vehicle or various concentrations of the test drug and preincubated for 10 minutes at room temperature.
Substantially the same procedure is used as described above in Section C of the Procedure used for determining the inhibition of acetylcholinsterase activity.

`CN1CC[C@@]2(C)c3cc(O)cc(Br)c3N(C)[C@@H]12` (relative stereo) [7-bromo-1,2,3,3a,8,8a-hexahydro-1,3a,8-trimethylpyrrolo[2,3-] [7-Bromo-1,2,3,3a,8,8a-hexahydro-1,3a,8-trimethylpyrrolo[2,3-b]indol-5-ol] was tested, and the “ANALGESIC ACTIVITY (ED50), Modified Haffner's Analgesia” value [1] was 0.22 mg/kg, the “ANALGESIC ACTIVITY (ED50), PQW” value ([2]; po) was 0.33 mg/kg and the “ANALGESIC ACTIVITY (ED50), PQW” value ([2]; sc) was 0.17 mg/kg.

In the case of `Cc1cc(O)cc2c1N(C)[C@H]1N(C)CC[C@@]21C` (relative stereo) [(3aS-cis)-1,2,3,3a,8,8a-Hexahydro-1,3a,7,8-tetramethylpyrrolo[2,3-b]indol-5-ol], the ED50 [1] is reported as 0.31 mg/kg and the ED50 ([2]; sc, sc) is reported as 0.22 mg/kg.

`CN1CC[C@@]2(C)c3cc(OC(=O)C(C)(C)C)cc(Br)c3N(C)[C@@H]12.Cl` (relative stereo) [(3aS-cis)-7-Bromo-1,2,3,3a,8,8a-hexahydro-1,3a,8-trimethylpyrrolo[2,3-b]indol-5-ol, trimethylacetate hydrochloride] gave an ED50 [1] of 0.6 mg/kg and an ED50 ([2]; sc, sc) of 0.8 mg/kg.

For `CN1CC[C@@]2(C)c3cc(O)cc(Br)c3N(C)[C@@H]12` (relative stereo) [(3aS-cis)-7-Bromo-1,2,3,3a, 8,8a-hexahydro-1,3a,8-trimethylpyrrolo[2,3-b]indol-5-ol], the ED50 ([2]; po, po) was 0.36 mg/kg.

For `CN1CC[C@@]2(C)c3cc(O)cc(Br)c3N(C)[C@@H]12` (relative stereo) [(3aS-cis)-7-bromo-1,2,3,3a,8,8a-hexahydro-1,3a,8-trimethylpy] [(3aS-cis)-7-Bromo-1,2,3,3a, 8,8a-hexahydro-1,3a,8-trimethylpyrrolo[2,3-b]indol-5-ol], the “ANALGESIC ACTIVITY (ED50), Modified Haffner's Analgesia” value [1] was 0.55 mg/kg and the “ANALGESIC ACTIVITY (ED50), PQW” value ([2]; sc) was 0.041 mg/kg.

`C=CCN1CCC2(C)c3cc(O)ccc3N(C)C12` (centres unmarked) [1,2,3,3a,8,8a-Hexahydro-3a,8-dimethyl-1-(2-propenyl)-pyrrolo[2,3-b]indol-5-ol salicylate] gave an ED50 [1] of 2.56 mg/kg and an ED50 ([2]; sc, sc) of 3.9 mg/kg.

With `CCN1CCC2(C)c3cc(O)cc(Br)c3N(C)C12` (centres unmarked) [7-Bromo-1-ethyl-1,2,3,3a,8,8a-hexahydro-3a,8-dimethylpyrrolo[2,3-b]indol-5-ol salicylate] the ED50 [1] was 1.94 mg/kg and the ED50 ([2]; sc, sc) was 2.52 mg/kg.

`CNC(=O)Oc1cc(C)c2c(c1)[C@]1(C)CCN(C)[C@@H]1N2C` [(3aS-cis)-1,2,3,3a,8,8a-Hexahydro-1,3a,7,8-tetramethylpyrrolo[2,3-b]indol-5-ol, methyl carbamate ester] showed an IC50 [3] of 0.012 µM.

`CC(=O)Oc1cc([N+](=O)[O-])c2c(c1)[C@]1(C)CCN(C)[C@@H]1N2C` [(3aS-cis)-1,2,3,3a,8,8a-Hexahydro-1,3a,8-trimethyl-7-nitropyrrolo[2,3-b]indol-5-ol acetate fumarate] was tested, and the ED50 [1] was 3.6 mg/kg and the ED50 ([2]; sc, sc) was 1.5 mg/kg.

Work on `CCC1CCC(NC(=O)Oc2ccc3c(c2)[C@]2(C)CCN(C)[C@@H]2N3C)CC1` (stereo partly drawn) [(3aS-cis)-1,2,3,3a,8,8a-Hexahydro-1,3a,8-trimethylpyrrolo[2,3-b]indol-5-ol,4-ethylcyclohexyl carbamate ester] yielded an IC50 (norepinephrine uptake) of 2.6 µM.

`CN1CC[C@@]2(C)c3cc(OC(=O)NC45CC6CC(CC(C6)C4)C5)ccc3N(C)[C@@H]12` [(3aS-cis)-1,2,3,3a,8,8a-Hexahydro-1,3a,8-trimethylpyrrolo[2,3-b]indol-5-ol,(1-adamantyl)carbamate ester] showed an IC50 [3] of 3.05 µM, a responders at 1.25 mg/kg [4] of 27% and an IC50 [5] greater than 100 µM.

For `CN1CC[C@@]2(C)c3cc(OC(=O)N4CC5CCC(CC5)C4)ccc3N(C)[C@@H]12` [(3aS-cis)-1,2,3,3a,8,8a-Hexahydro-1,3a,8-trimethylpyrrolo[2,3-b]indol-5-ol,[3-[3-azabicyclo[3.2.2]nonyl]]carbamate ester fumarate], the IC50 [3] was 0.84 µM, the responders at 5 mg/kg [4] was 33% and the IC50 [5] was greater than 1000 µM.

In the case of `CN1CC[C@@]2(C)c3cc(OC(=O)NC4CCCCCCCCCCC4)ccc3N(C)[C@@H]12` [(3aS-cis)-1,2,3,3a,8,8a-Hexahydro-1,3a,8-trimethylpyrrolo[2,3-b]indol-5-ol,cyclododecyl carbamate ester], the IC50 [3] is reported as 0.41 µM and the IC50 [5] is reported as greater than 1000 µM.

`CCN(CC)C(=O)Oc1cc2c(cc1Br)N(C)[C@H]1N(C)CC[C@@]21C` [(3aS-cis)-6-bromo-1,2,3,3a,8,8a-hexahydro-1,3a,8-trimethylpyrrolo[2,3-b]indol-5-ol, N,N-diethyl carbamate ester] showed a responders at 5 mg/kg [4] of 40%.

`CN1CC[C@@]2(C)c3cc(O)ccc3N(C)[C@@H]12` [eseroline salicylate, reference compound] was tested, and the ED50 [1] was 0.18 mg/kg and the ED50 ([2]; sc, sc) was 0.52 mg/kg.
